Like-named read-outs stand apart in the source and are kept apart here.
Experiments:
K562-CD19 cells [1] = experiment: Deactivation of DARIC cytotoxicity using an anti-bridging factor; type: cell-based, human
Method: Deactivation of the DARIC system by the addition of a pharmacological agent that competes for binding to one of the multimerization domains was tested. Primary human T cells expressing either a traditional CD19 targeting CAR or primary human T cells expressing the CD19 targeting DARIC components (SEQ ID NO.:66) were co-incubated with 50:50 mixtures of K562-CD19 and K562-CD20 cells.

K562-CD19 target cells [2] = experiment: Titration of bridging factors, DARIC T cell cytotoxicity; settings: DARIC expressing T cells, 5:1, 50:50 K562-CD19:K562-CD20
Method: (§1) A broad range of bridging factor (rapamycin and everolimus) concentrations were tested to determine whether a DARIC system can function at clinically relevant concentrations. As in the Example 4, primary human T cells were isolated, activated, and then transduced with lentiviral vectors expressing a DARIC binding component (SEQ ID NOS.:1, 4, 7) and a DARIC signaling component (SEQ ID NOS.:15, 19, 23). The DARIC expressing T cells were then co-incubated with 50:50 mixtures of the K562-CD19 and K562-CD20 target cells to evaluate antigen-specific cytotoxicity. The overall ratio of T cells to K562 cells was 5:1 in all samples.

K562-CD19 cells [3] = settings: for elimination of K562-CD19 cells by bridging factor: rapamycin 10 nM or AP21967 100 nM, 5:1
Method: The transduced T cells were then co-incubated with about a 50:50 mixture of the K562 target cells expressing either CD19 (K562-CD19) or CD20 (K562-CD20) to evaluate antigen-specific cytotoxicity. […] The DARIC antigen binding component includes a CD19 antigen binding scFv domain and a FKBP12 multimerization domain, which was linked to a mCherry fluorescent protein.
In addition, two distinct T cell populations were mixed, wherein one population was expressing a DARIC antigen binding component and the other population was expressing a DARIC signaling component.

K562-CD19 target cells [4] = test system: K562-CD19 target cells
Method: as §1

## C=CC[C@@H]1/C=C(\C)C[C@H](C)C[C@H](OC)[C@H]2O[C@@](O)(C(=O)C(=O)N3CCCC[C@H]3C(=O)O[C@H](/C(C)=C/[C@@H]3CC[C@@H](O)[C@H](OC)C3)[C@H](C)[C@@H](O)CC1=O)[C@H](C)C[C@@H]2OC [FK506]
K562-CD19 cells [1]; CD19 targeting CAR T cells
  reduction in antigen specific cytotoxicity when added: minimal reduction
K562-CD19 cells [1]; CD19 targeting DARIC T cells with rapamycin
  reduction in antigen specific cytotoxicity when added: marked reduction

## CO[C@H]1C[C@@H]2CC[C@@H](C)[C@@](O)(O2)C(=O)C(=O)N2CCCC[C@H]2C(=O)O[C@H]([C@H](C)C[C@@H]2CC[C@@H](O)[C@H](OC)C2)CC(=O)[C@H](C)/C=C(\C)[C@@H](O)[C@@H](OC)C(=O)[C@H](C)C[C@H](C)/C=C/C=C/C=C/1C [rapamycin]
K562-CD19 target cells [2]
  cytotoxicity responses over bridging factor concentration: maintained to sub-nanomolar drug concentrations
K562-CD19 cells [3]; mixed T cell populations, one expressing the binding component, the other the signaling component
  cytotoxicity by bridging factor: cytotoxicity response against K562-CD19 cells

## CO[C@H]1[C@@H](O)[C@H](C)C[C@H](C)/C=C/C=C/C=C(\C)[C@@H](c2c[nH]c3c(C)cccc23)C[C@@H]2CC[C@@H](C)[C@@](O)(O2)C(=O)C(=O)N2CCCC[C@H]2C(=O)O[C@H]([C@H](C)C[C@@H]2CC[C@@H](O)[C@H](OC)C2)C[C@H](O)[C@H](C)/C=C(\C)[C@H]1O [AP21967, C-16-(S)-7-methylindolerapamycin]
K562-CD19 cells [3]; T cells with CD19 scFv-FKBP12 binding component and FRB (2021-2113) T2098L signaling component
  elimination of K562-CD19 cells by bridging factor: elimination of the CD19 expressing K562 cells
K562-CD19 cells [3]; T cells with CD19 scFv-FKBP12 binding component and FRB signaling component
  elimination of K562-CD19 cells by bridging factor: no effect on cell survival

## CO[C@H]1C[C@@H]2CC[C@@H](C)[C@@](O)(O2)C(=O)C(=O)N2CCCC[C@H]2C(=O)O[C@H]([C@H](C)C[C@@H]2CC[C@@H](OCCO)[C@H](OC)C2)CC(=O)[C@H](C)/C=C(\C)[C@@H](O)[C@@H](OC)C(=O)[C@H](C)C[C@H](C)/C=C/C=C/C=C/1C [everolimus]
K562-CD19 target cells [4]
  cytotoxicity responses over bridging factor concentration: maintained to sub-nanomolar drug concentrations

Reference: US10428142B2, “Multipartite signaling proteins and uses thereof” (BLUEBIRD BIO, INC., priority 2013, dated 2019)
